According to patent publication US4199598A, “Method of treating noradrenaline dysfunction or for dopamine-β-hydroxylase inhibition” (Richter Gedeon Vegyeszeti Gyar Rt., priority 1976, dated 1980):
Where two headings read alike, the source gives them in different places.

Tests used:
dopamine-β-hydroxylase [1] = conditions: in words, prior art; cited from earlier work
dopamine-β-hydroxylase [2] = assay: Noradrenaline, dopamine, serotonine and 5-hydroxy-indolylacetic acid contents of cerebrum (dopamine-β-hydroxylase inhibiting effect); assay type: in vivo, male Wister rats; conditions: Rattus norvegicus, ip; for response vs control in vivo at 400 mg/kg: 4 h; for response vs control in vivo at 100 mg/kg / response vs control in vivo at 200 mg/kg: rats, i.p., 4 hours, ± Standard Error
Experimental: (§1) The dopamine-β-hydroxylase inhibiting effects of the compounds according to the invention were examined by the following tests:
(§2) The tests were performed on male Wister rats weighing 150 to 200 g. The dopamine-β-hydroxylase inhibiting effects of the compounds were evaluated by determining the change of noradrenaline, dopamine and adrenaline levels of the cerebrum, heart, spleen and adrenal gland. The serotonine and 5-hydroxy-indolyl-acetic acid levels of the cerebrum were also determined. The measurements were performed as follows:
(§3) The animals were decapitated, the cerebrum, heart, spleen and adrenal gland were removed quickly, and the organs were frozen by placing them onto a metal sheet cooled with dry ice. The frozen organs were stored for a maximum of one night at -20° C.
(§4) Noradrenaline was determined according to the method of Shellenberger et al (Anal. Biochem., Vol. 39, p. 356, 1971), with the following modifications of the basic procedure: 0.5 ml of 0.1 molar Na-K-phosphate buffer, containing 9 g/l of EDTA-Na2, were added to 0.5 ml of the eluate, and the catecholamines (noradrenaline in the examination of heart and spleen and noradrenaline and dopamine in the examination of the cerebrum) were oxidized with 0.1 ml of a 0.1 N iodine solution in 5% potassium iodide. […] Thereafter the samples were placed for 5 minutes in a drying oven heated to 100° C., and then the samples were cooled with ice water. The fluorescence of noradrenaline was measured with an OPTON spectrophotometer at wavelengths of 390 nm (excitation) and 490 nm (emission).
Determination of the noradrenaline, dopamine, serotonine and 5-hydroxy-indolylacetic acid contents of cerebrum
The brains were homogenized in 10 parts by volume of 0.4 N perchloric acid. The homogenized mixture was stored at -20° C. overnight; thereafter it was thawed and centrifuged as described above. A sample of homogenized mixture corresponding to 0.5 g of brain was removed, the pH of the sample was adjusted to 8.0±0.1 with 0.1 molar tris-buffer of the above composition, and the sample was processed as described above for the determination of the noradrenaline content of heart and spleen, with the difference that 1.5 ml of 0.05 N perchloric acid were applied as eluting agent. 0.5 ml of the eluate were applied to determine the noradrenaline and dopamine content. The measurement was performed as described above, with the difference that samples of 0.5 ml were applied for the recording of the fluorescence of noradrenaline. The residue was placed for 50 minutes into a drying oven heated to 100° C.; thereafter the sample was cooled with ice water, and the fluorescence of dopamine was recorded at wavelengths of 325 nm (excitation) and 380 nm (emission).
In a further test series the serotonine and 5-hydroxy-indolylacetic acid contents were also determined, in addition to the determination of the noradrenaline and dopamine contents, from the same sample. In this instance the brains were homogenized in 10 ml of 75% ethanol, 0.2 ml of EDTA-Na2 and 5% of ascorbic acid were added to the homogenized mixtures, and the homogenized mixtures were maintained at -20° C. overnight. The mixtures were then centrifuged as described above, and 5.0 ml samples of the supernatant were removed. The samples were diluted with equal volumes of distilled water, and poured onto ion-exchange columns of 0.5×1.5 cm dimensions, filled with buffered Amberlite CG-30 (200 to 400 mesh). The columns were washed with 5 ml of distilled water followed with 1.0 ml of 0.2 N hydrochloric acid, and the first effluent and the aqueous wash were collected for the determination of 5-hydroxy-indolylacetic acid. Elution was continued with further 1.2 ml of 0.2 N hydrochloric acid in order to remove noradrenaline, dopamine and serotonine. Samples of 0.3 ml were used for the determinations. […]

dopamine-β-hydroxylase [3] = assay: Noradrenaline content of heart (dopamine-β-hydroxylase inhibiting effect); assay type: in vivo, male Wister rats; conditions: Rattus norvegicus, ip, rats, i.p., 4 hours, ± Standard Error, read-out: Amine level, heart NA (noradrenaline)
Experimental: as §1, §2, §3
(§5) Determination of the noradrenaline content of heart and spleen
(§6) The organs were weighed in frozen state and then homogenized in 5.0 ml of 0.4 N perchloric acid containing 0.05% of EDTA-Na2 and 0.1% of Na2 S2 O5. The homogenized mixtures were centrifuged as described above for the treatment of adrenal gland, the supernatants were decanted, and the pH was adjusted to 8.0±0.1 with a 0.1 molar tris buffer containing 20 g/l of NaOH and 25 g/l of EDTA-Na2. 100 mg of prepared Al2 O3 (Anton et al: J. Pharm. Ther., Vol. 138, p. 360, 1962) were added to the samples, and the mixtures were shaken mechanically for 20 minutes. Thereafter the Al2 O3 were washed with 2.10 ml of distilled water, and the noradrenaline was eluted with 1.0 ml of 0.05 N perchloric acid. 0.5 ml samples of the eluate were applied for the determination of noradrenaline.
as §4
(§7) In the tests disulfiram, 2,2-dipyridyl, bis(1-methyl-4-homopiperazinyl-thiocarbonyl)-disulfide, sodium diethyldithiocarbamate and N-phenyl-N'-(2-thiazolyl)-thiourea were used as reference substances. The values indicated in Table 1 are percentages in relation to the amine levels of the controls measured in the same tests (± Standard Error). The statistical calculations were performed on a TPA/i type computer, using Student's test.

dopamine-β-hydroxylase [4] = assay: Noradrenaline content of spleen (dopamine-β-hydroxylase inhibiting effect); assay type: in vivo, male Wister rats; conditions: Rattus norvegicus, ip, rats, i.p., 4 hours, ± Standard Error, read-out: Amine level, spleen NA (noradrenaline)
Experimental: as §1, §2, §3, §5, §6, §4, §7

dopamine-β-hydroxylase [5] = assay: Adrenaline content of adrenal gland (dopamine-β-hydroxylase inhibiting effect); assay type: in vivo, male Wister rats; conditions: Rattus norvegicus, ip, rats, i.p., 4 hours, ± Standard Error, read-out: Amine level, adrenal gland AD (adrenaline)
Experimental: as §1, §2, §3
Determination of the adrenaline content of adrenal gland
The adrenal glands were freed from fat and homogenized in 3.0 ml of ice-cold 0.4 N perchloric acid. The homogenized mixtures were centrifuged for 10 minutes at 0° C. with a speed of 3200 r.p.m. on a Janetzky K-70 type centrifuge. 0.05 ml samples were taken from the supernatant, and the adrenaline level was determined directly by the method of Laverty et al (Anal. Biochem., Vol. 22, p. 269, 1968).
as §7

[6] = read-out: Amine level, cerebrum DA (dopamine)
[7] = read-out: Amine level, cerebrum NA (noradrenaline)
[8] = read-out: Amine level, cerebrum SE (serotonine)

Cn1cc[nH]c1=S [methimazol]
dopamine-β-hydroxylase inhibiting effects (dopamine-β-hydroxylase [1]): possess dopamine-β-hydroxylase inhibiting effects

NNc1nncc2ccccc12 [Hydralazine, hydralazine]
dopamine-β-hydroxylase inhibiting effects (dopamine-β-hydroxylase [1]): possess dopamine-β-hydroxylase inhibiting effects

CCN(CC)C(=S)S [diethyl dithiocarbamate]
dopamine-β-hydroxylase inhibiting effects (dopamine-β-hydroxylase [1]): strong dopamine-β-hydroxylase inhibiting effects

CCN(CC)C(=S)S [DDC-Na, sodium diethyldithiocarbamate, reference compound]
response vs control in vivo at 400 mg/kg (dopamine-β-hydroxylase [2]; [6]): 120%
response vs control in vivo at 400 mg/kg (dopamine-β-hydroxylase [2]; [7]): 64.1%

O=C(CO)c1coc(=O)c2c(O)cccc12 [Oosponol]
dopamine-β-hydroxylase inhibiting effects (dopamine-β-hydroxylase [1]): strong dopamine-β-hydroxylase inhibiting effects

CC(C)CCNC1=C(C(=S)S)CCC1 [Compound M-3, 2-(N-isoamyl)-amino-cyclopent-1-ene-dithiocarboxylic acid]
response vs control in vivo at 100 mg/kg (dopamine-β-hydroxylase [2]; [6]): 103 ± 4.1%
response vs control in vivo at 100 mg/kg (dopamine-β-hydroxylase [2]; [7]): 75.2 ± 1.7%
response vs control in vivo at 100 mg/kg (dopamine-β-hydroxylase [2]; [8]): 108 ± 5.7%
response vs control in vivo at 200 mg/kg (dopamine-β-hydroxylase [2]; [6]): 114 ± 2.7%
response vs control in vivo at 200 mg/kg (dopamine-β-hydroxylase [2]; [7]): 68.8 ± 2.4%
response vs control in vivo at 200 mg/kg (dopamine-β-hydroxylase [2]; [8]): 98.2 ± 3.9%
response vs control in vivo at 100 mg/kg (dopamine-β-hydroxylase [3]; 100 mg/kg): 86.9 ± 5.9%
response vs control in vivo at 200 mg/kg (dopamine-β-hydroxylase [3]; 200 mg/kg): 131 ± 4.4%
response vs control in vivo at 100 mg/kg (dopamine-β-hydroxylase [4]; 100 mg/kg): 48.2 ± 9.5%
response vs control in vivo at 200 mg/kg (dopamine-β-hydroxylase [4]; 200 mg/kg): 135 ± 17%
response vs control in vivo at 100 mg/kg (dopamine-β-hydroxylase [5]; 100 mg/kg): 86.2 ± 4.5%
response vs control in vivo at 200 mg/kg (dopamine-β-hydroxylase [5]; 200 mg/kg): 73.5 ± 2.2%

CC(N)Cc1ccccc1 (stereo not shown) [amphetamine]
dopamine-β-hydroxylase inhibiting effects (dopamine-β-hydroxylase [1]): possess dopamine-β-hydroxylase inhibiting effects
